Common to all, as to format: functional, cell-based
For one assay, the system named is DU-145. The assay can be described thus: Cytotoxicity against human DU145 cells by SRB assay. For orientation: The SRB assay estimates cell density from bound dye.
Assay [1] can be described thus: Cytotoxicity against human KBVIN cells by SRB assay.
In another assay the test system is A549. The assay can be described thus: Cytotoxicity against human A549 cells by SRB assay.
A further assay concerns KB. The assay can be described thus: Cytotoxicity against human KB cells by SRB assay.

As for `CC[C@@]1(O)C(=O)OCc2c1cc1n(c2=O)Cc2c-1nc1ccccc1c2C(=O)c1cc(OC)c(OC)c(OC)c1`, the IC50 in the assay with DU-145 was 2110 nM; in assay [1], 1170 nM; in the assay with A549, 1000 nM; in the assay on KB, 3140 nM.
`CC[C@@]1(O)C(=O)OCc2c1cc1n(c2=O)Cc2c-1nc1ccccc1c2C(=O)c1cc(OC)ccc1OC`: the IC50 worked out at 2060 nM in the assay with DU-145, 2250 nM in assay [1], 1010 nM in the assay on A549 and 2920 nM in the assay with KB.
The matching figures for `CC[C@@]1(O)C(=O)OCc2c1cc1n(c2=O)Cc2c-1nc1ccccc1c2C(=O)c1ccc(C)c(O)c1`: 1540 nM, 1140 nM, 1020 nM and 1730 nM.
Take `CC[C@@]1(O)C(=O)OCc2c1cc1n(c2=O)Cc2c-1nc1ccccc1c2C(=O)c1ccc(C)c(C)c1`: the IC50 in the assay with DU-145 was found to be 1700 nM; in assay [1] it was 4620 nM; with A549, 1000 nM; in the assay with KB, 2490 nM.
As to `CC[C@@]1(O)C(=O)OCc2c1cc1n(c2=O)Cc2c-1nc1ccccc1c2C(=O)c1ccc(O)cc1`, the IC50 in the assay on DU-145 was determined as 2990 nM; in assay [1], 1790 nM; in the assay with A549 it was 2510 nM; with KB it was 12500 nM.
The like results for `CC[C@@]1(O)C(=O)OCc2c1cc1n(c2=O)Cc2c-1nc1ccccc1c2C(=O)c1ccc2c(c1)OCO2` were, in that order, 2600 nM, 1770 nM, 1130 nM and 11800 nM.
Take `CC[C@@]1(O)C(=O)OCc2c1cc1n(c2=O)Cc2c-1nc1ccccc1c2C(=O)c1ccc(OC)cc1`: the IC50 is 1610 nM with DU-145, 3140 nM in assay [1], 911 nM in the assay on A549 and 4780 nM with KB.
The like results for `CC[C@@]1(O)C(=O)OCc2c1cc1n(c2=O)Cc2c-1nc1ccccc1c2C(=O)c1ccc(Cl)cc1` were, in that order, 1680 nM, 1120 nM, 949 nM and 3070 nM.
Regarding `CC[C@@]1(O)C(=O)OCc2c1cc1n(c2=O)Cc2c-1nc1ccccc1c2C(=O)c1ccccc1`, the IC50 in the assay with DU-145 amounted to 11000 nM; in assay [1] it was 11900 nM; in the assay on A549, 11000 nM; in the assay on KB it was 13300 nM.
As to `CC[C@@]1(O)C(=O)OCc2c1cc1n(c2=O)Cc2c-1nc1ccccc1c2C(=O)c1ccoc1`, the IC50 was found to be 2010 nM with DU-145, 1800 nM in assay [1], 2020 nM in the assay on A549 and 2730 nM with KB.
For `CCC(=O)c1c2c(nc3ccccc13)-c1cc3c(c(=O)n1C2)COC(=O)[C@]3(O)CC`, the IC50 is 89.8 nM in the assay with DU-145, 28.7 nM in assay [1], 31.7 nM in the assay with A549 and 59.2 nM with KB.
The matching figures for `CC[C@@]1(O)C(=O)OCc2c1cc1n(c2=O)Cc2c-1nc1ccccc1c2C(C)=O`: 40.2 nM, 131 nM, 15.4 nM and 23.3 nM.
`CC[C@@]1(O)C(=O)OCc2c1cc1n(c2=O)Cc2cc3ccccc3nc2-1` [CAMPTOTHECIN] had an IC50 with DU-145 of 28.7 nM.
As for `CCc1c2c(nc3ccc(OC(=O)N4CCC(N5CCCCC5)CC4)cc13)-c1cc3c(c(=O)n1C2)COC(=O)[C@]3(O)CC` [IRINOTECAN], the concentration for half-maximal inhibition (IC50) is 9300 nM in the assay with DU-145 and greater than 20000 nM in assay [1].

Broadly, the IC50 is the midpoint of a concentration-inhibition curve.

The values above are taken from ChEMBL document CHEMBL2203178, “Design and one-pot synthesis of new 7-acyl camptothecin derivatives as potent cytotoxic agents” (Bioorg Med Chem Lett, 2012).
